Among the data in patent US11203591B2, “Substituted 6-azabenzimidazole compounds” (Gilead Sciences, Inc., priority 2018, dated 2021) are IC50 values, retold here.

Chain of human HPK1 (MAP4K1) (Q92918 17-274): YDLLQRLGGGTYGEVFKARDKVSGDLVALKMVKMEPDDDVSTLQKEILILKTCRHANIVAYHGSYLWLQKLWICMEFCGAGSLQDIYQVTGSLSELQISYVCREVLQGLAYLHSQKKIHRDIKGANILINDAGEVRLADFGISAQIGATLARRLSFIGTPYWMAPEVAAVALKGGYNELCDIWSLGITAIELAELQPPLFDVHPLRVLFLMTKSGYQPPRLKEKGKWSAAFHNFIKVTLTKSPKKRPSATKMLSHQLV

In one assay the target is human HPK1 (MAP4K1) (Homo sapiens (Human), UniProt Q92918). The experiment in a line: HPK1 IC50 Assay (TR-FRET peptide phosphorylation). In kind it is biochemical. To be noted: 0.15 nM HPK1, 10 μM ATP, 1 μM STK S1 peptide substrate; geometric mean. The gist of the method:
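Readout: TR-FRET (665 nm/620 nm) after EDTA stop, detecting STK S1 peptide (1 μM) phosphorylation by 0.15 nM HPK1 kinase domain, ATP-pre-activated, at 10 μM ATP over 3 h, 25° C, pH 7.0. IC50s from four-parameter variable-slope fits, normalized to staurosporine and DMSO, averaged geometrically.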
As to `CC(C)n1cnc2cc(-c3ccc4c(c3)N([C@H]3C[C@@](C)(N5CCCCC5)C3)C(=O)C43CC3)nc(Nc3cc(C(=O)NCC(F)F)c(Cl)c(F)c3F)c21` [Example 275, 2-chloro-N-(2,2-difluoroethyl)-3,4-difluoro-5-((3-isopropyl-6-(1′-((1s,3s)-3-methyl-3-(piperidin-1-yl)cyclobutyl)-2′-oxospiro[cyclopropane-1,3′-indolin]-6′-yl)-3H-imidazo[4,5-c]pyridin-4-yl)amino)benzamide], the IC50 (usually the point on the concentration scale where inhibition reaches its midpoint) was determined as 60 pM.
Same read-out and setting: next, `CCNC(=O)c1cc(Nc2nc(-c3cc4c(nc3F)C(C)(C)C(=O)N4[C@H]3C[C@@](C)(N4CCCC5(CC5)C4)C3)cc3ncn(C(C)C)c23)c(F)c(F)c1C` [Example 279, N-ethyl-3,4-difluoro-5-((6-(5-fluoro-3,3-dimethyl-1-((1s,3s)-3-methyl-3-(5-azaspiro[2.5]octan-5-yl)cyclobutyl)-2-oxo-2,3-dihydro-1H-pyrrolo[3,2-b]pyridin-6-yl)-3-isopropyl-3H-imidazo[4,5-c]pyridin-4-yl)amino)-2-methylbenzamide]: 100 pM.

The same assay, now with this note: recombinant HPK1 kinase domain 0.15 nM, 10 μM ATP, 1 μM STK S1 peptide; geometric mean of multiple experiments.
Consider `CC(=O)N1CCC2(CC1)C(=O)N([C@H]1C[C@@H](N3CCCCC3)C1)c1cc(-c3cc4ncn(C(C)C)c4c(Nc4cc(C(=O)NC(C)C)c(Cl)cc4F)n3)ccc12` [Example 89], for which the IC50 was determined as 200 pM.
Consider `CC[C@H](C)n1cnc2cc(-c3ccc4c(c3)N([C@H]3C[C@@H](N5CC[C@@H](F)C5)C3)C(=O)C4(C)C)nc(Nc3cc(C(=O)NC)c(C)cc3F)c21` [Example 109], for which the IC50 is 300 pM.
As to `CNC(=O)c1cc(Nc2nc(-c3ccc4c(c3)N([C@H]3C[C@@H](N5CCC6(C5)CC6(F)F)C3)C(=O)C43CCN(C(C)=O)CC3)cc3ncn(C(C)C)c23)ccc1C` (stereo partly shown) [Example 164], the IC50 came out at 200 pM.
Same read-out and setting: next, `Cc1cc(F)c(Nc2nc(-c3ccc4c(c3)N([C@H]3C[C@@H](N5C[C@H]6CC[C@@H]5C6)C3)C(=O)C4(C)C)cc3ncn(C(C)C)c23)cc1C(=O)NC1(C(F)F)CC1` [Example 66]: 90 pM; `CNC(=O)c1cc(Nc2nc(-c3ccc4c(c3)N([C@H]3C[C@@H](N5CC[C@@H](F)C5)C3)C(=O)C4(C)C)cc3ncn(C(C)C)c23)c(F)cc1C` [Example 108]: 100 pM.
On to `CNC(=O)c1cc(Nc2nc(-c3ccc4c(c3)N(C3CC(N5CCC[C@H](C(F)F)C5)C3)C(=O)C4(C)C)cc3ncn(C(C)C)c23)ccc1C` (stereo partly shown) [Example 105B, 5-((6-(1-((1s,3s)-3-(3-(difluoromethyl)piperidin-1-yl)cyclobutyl)-3,3-dimethyl-2-oxoindolin-6-yl)-3-isopropyl-3H-imidazo[4,5-c]pyridin-4-yl)amino)-N,2-dimethylbenzamide], for which the IC50 was 90 pM.
With `CNC(=O)c1cc(Nc2nc(-c3ccc4c(c3)N([C@H]3C[C@@H](N5CCCC6(CC6)C5)C3)C(=O)C43CCN(C(C)=O)CC3)cc3ncn(C4CC4)c23)ccc1C` [Example 166], the concentration for half-maximal inhibition (IC50) was 100 pM.
Still for that read-out and setting: under `CNC(=O)c1cc(Nc2nc(-c3ccc4c(c3)N([C@H]3C[C@@H](N5CCCCC5)C3)C(=O)C43CCN(C(=O)C4CCC4)CC3)cc3ncn(C4CC4)c23)ccc1C` [Example 155] stands 60 pM; under `CC[C@H](C)n1cnc2cc(-c3ccc4c(c3)N([C@H]3C[C@@H](N5CCC[C@@H](F)C5)C3)C(=O)C43CCN(C(C)=O)CC3)nc(Nc3ccc(C)c(C(=O)NC)c3)c21` [Example 157, 5-((6-(1′-acetyl-1-((1S,3R)-3-((R)-3-fluoropiperidin-1-yl)cyclobutyl)-2-oxospiro[indoline-3,4′-piperidin]-6-yl)-3-((S)-sec-butyl)-3H-imidazo[4,5-c]pyridin-4-yl)amino)-N,2-dimethylbenzamide], 200 pM.
With `CCNC(=O)c1cc(Nc2nc(-c3ccc4c(c3)N([C@H]3C[C@@H](N5CCCCC5)C3)C(=O)C43CCOCC3)cc3ncn(C(C)C)c23)ccc1C` [Example 22], the IC50 came to 70 pM.
`CNC(=O)c1cc(Nc2nc(-c3ccc4c(c3)N([C@H]3C[C@@H](N5CCCCC5)C3)C(=O)C43CCN(C(=O)[C@@H](C)O)CC3)cc3ncn(C4CC4)c23)ccc1C` [Example 151]: the IC50 is 50 pM.
As for `CC(=O)N1CCC2(CC1)C(=O)N([C@H]1C[C@@H](N3CCCCC3)C1)c1cc(-c3cc4ncn(C(C)C)c4c(Nc4ccc(C)c(C(=O)NCCO)c4)n3)ccc12` [Example 132], the IC50 is 100 pM.
Same read-out and setting: under `Cc1cc(F)c(Nc2nc(-c3ccc4c(c3)N([C@H]3C[C@@H](N5CCC[C@@H](F)C5)C3)C(=O)C4(C)C)cc3ncn(C(C)C)c23)cc1C(=O)NC(C)C` [Example 110] stands 200 pM.
On the same count and under the same terms, under `Cc1c(C(=O)NC2(C(F)F)CC2)cc(Nc2nc(-c3cnc4c(c3)N([C@H]3C[C@@](C)(N5CCC(F)CC5)C3)C(=O)C4(C)C)cc3ncn(C(C)C)c23)c(F)c1F` [Example 197, N-(1-(Difluoromethyl)cyclopropyl)-3,4-difluoro-5-((6-(1-((1s,3s)-3-(4-fluoropiperidin-1-yl)-3-methylcyclobutyl)-3,3-dimethyl-2-oxo-2,3-dihydro-1H-pyrrolo[3,2-b]pyridin-6-yl)-3-isopropyl-3H-imidazo[4,5-c]pyridin-4-yl)amino)-2-methylbenzamide] stands 100 pM.
As for `CNC(=O)c1cc(Nc2nc(-c3ccc4c(c3)N([C@H]3C[C@@H](N5CCCCC5)C3)C(=O)C43CCN(C(C)=O)CC3)cc3ncn(C4CC4)c23)cc(C)c1C` [Example 96], the IC50 is 200 pM.
Regarding `Cc1cc(F)c(Nc2nc(-c3ccc4c(c3)N([C@H]3C[C@@H](N5CCCCC5)C3)C(=O)C43CCN(C(=O)C(C)(C)O)CC3)cc3ncn(C(C)C)c23)cc1C(=O)NC(C)C` [Example 55], the IC50 is 200 pM.
On the same count and under the same terms, next, `CC(C)NC(=O)c1cc(Nc2nc(-c3cnc4c(c3)N([C@H]3C[C@@](C)(N5CCC6CC6C5)C3)C(=O)C4(C)C)cc3ncn(C(C)C)c23)c(F)c(F)c1Cl` (stereo partly shown) [Example 254, 5-((6-(1-((1s,3s)-3-(3-azabicyclo[4.1.0]heptan-3-yl)-3-methylcyclobutyl)-3,3-dimethyl-2-oxo-2,3-dihydro-1H-pyrrolo[3,2-b]pyridin-6-yl)-3-isopropyl-3H-imidazo[4,5-c]pyridin-4-yl)amino)-2-chloro-3,4-difluoro-N-isopropylbenzamide]: 50 pM; `COCCNC(=O)c1cc(Nc2nc(-c3ccc4c(c3)N([C@H]3C[C@@H](N5CCCCC5)C3)C(=O)C43CCN(C(C)=O)CC3)cc3ncn(C(C)C)c23)c(F)cc1C` [Example 86]: 200 pM.
For the compound `CC[C@H](C)n1cnc2cc(-c3ccc4c(c3)N([C@H]3C[C@@H](N5CCCCC5)C3)C(=O)C4(C)C)nc(Nc3ccc(C)c(C(=O)NC)c3)c21` [Example 128], the IC50 is 100 pM.
On the same count and under the same terms, under `Cc1ccc(Nc2nc(-c3ccc4c(c3)N([C@H]3C[C@@H](NC(=O)C(C)(C)C)C3)C(=O)C4(C)C)cc3ncn(C(C)C)c23)cc1C(N)=O` [Example 135, 5-((6-(3,3-dimethyl-2-oxo-1-((1s,3s)-3-pivalamidocyclobutyl)indolin-6-yl)-3-isopropyl-3H-imidazo[4,5-c]pyridin-4-yl)amino)-2-methylbenzamide] stands 600 pM.
